This experiment is described as follows: mouse embryonic fibroblast toxicity – cell-based, plate reader, dry powder, set 2, cytotoxicity control, dose response (AID 652280). Particulars: NIH/3T3 mouse fibroblast toxicity, plate reader; at 16 µM (top of the series).

Inconclusive results are not listed. Activity calls are given as the source filed them. The rule behind the calls is not given here.

On to `CN(C)C(=O)c1cccc(-c2ccc([C@H]3[C@@H](CO)N4CCCCN(C(=O)C5CCCC5)C[C@@H]34)cc2)c1`, for which the activity change, negative = toxicity is 28.8% (inactive).

Regarding `C[C@H]1CN([C@@H](C)CO)C(=O)c2cccc(NC(=O)c3ccncc3)c2O[C@@H]1CN(C)Cc1ccc(F)cc1Cl`, the activity change, negative = toxicity was -10.1% (inactive). Take `CC(C)N1C[C@H](CNCc2ccc(Cl)cc2)Oc2c(NC(=O)c3ccncc3)cccc2C1=O`: the activity change, negative = toxicity is -20.3% (inactive). As for `C[C@H]1CN([C@@H](C)CO)C(=O)c2cccc(NC(=O)c3ccncc3)c2O[C@@H]1CN(C)Cc1cccc(Cl)c1`, the figure is -20.7% (inactive). The figure for `CCC(=O)N1CC[C@@H]2[C@H]1c1cc(-c3ccccc3)ccc1N(C)[C@@H]2CO` is -26.5% (inactive).

With `C[C@@H]1CN([C@@H](C)CO)C(=O)c2cccc(NC(=O)c3ccncc3)c2O[C@H]1CN(C)Cc1cccc(Cl)c1`, the activity change, negative = toxicity was -5.45% (inactive). In the case of `CCN(C)C[C@H]1Oc2c(NC(=O)c3ccncc3)cccc2C(=O)N(C(C)C)[C@@H]1C`, the activity change, negative = toxicity was -7.46% (inactive). As for `CC(C)N1C[C@H](CN2Cc3ccccc3C2)Oc2c(NC(=O)c3ccncc3)cccc2C1=O`, the figure is 1.03% (inactive); as for `COc1ccc(CN(C)C[C@@H]2Oc3c(NC(=O)c4ccncc4)cccc3C(=O)N([C@@H](C)CO)C[C@H]2C)cc1`, -22.2% (inactive); as for `CN(C)C(=O)c1cccc(-c2ccc([C@H]3[C@H](CO)N4CCCCN(CC5CCOCC5)C[C@@H]34)cc2)c1`, 20% (inactive). The figure for `COc1ccc(S(=O)(=O)N(C)C[C@H]2OCCCC[C@H](C)Oc3ccc(N(C)C)cc3C(=O)N([C@H](C)CO)C[C@@H]2C)cc1` is 10% (inactive).

In the case of `C[C@H]1CN([C@@H](C)CO)C(=O)c2cccc(NC(=O)c3ccncc3)c2O[C@@H]1CN(C)Cc1ccc(F)c(F)c1`, the activity change, negative = toxicity is -6.64% (inactive). The figure for `CCOC(=O)c1cc2c(c(-c3cccc(C#CCN(C)C)c3)n1)[C@H](CCO)N(S(=O)C(C)(C)C)C2` (some centres undefined) is -9.39% (inactive); for `C[C@H]1CN([C@@H](C)CO)C(=O)c2cccc(NC(=O)c3ccncc3)c2O[C@@H]1CN(C)Cc1ccc(Cl)cc1` it is -41.2% (inactive). The figure for `CC(C)N1C[C@@H](CN(C)Cc2ccc(Cl)cc2)Oc2c(NC(=O)c3ccncc3)cccc2C1=O` is -18% (inactive); for `CC(C)N1C[C@@H](CN(C)Cc2ccc(Cl)cc2)Oc2c(C(=O)Nc3ccnnc3)cccc2C1=O` it is -4.49% (inactive); for `O=C(Cc1ccccn1)N1CCCCN2[C@@H](CO)[C@H](c3ccc(-c4ccc(F)cc4)cc3)[C@@H]2C1` it is -8.79% (inactive).

For the molecule `CN(C)CC#Cc1cccc(-c2nc(C(=O)O)cc3c2[C@H](CCO)N(S(=O)C(C)(C)C)C3)c1` (some centres undefined), the activity change, negative = toxicity is -1.94% (inactive).

Consider `CC(C)N1CC2(CN(C(=O)OC(C)(C)C)C2)Oc2c(NC(=O)c3ccncc3)cccc2C1=O`, for which the activity change, negative = toxicity was -9.89% (inactive). On to `C[C@H]1CN([C@@H](C)CO)C(=O)c2cccc(NC(=O)c3ccncc3)c2O[C@@H]1CN(C)Cc1ccc(Cl)cc1Cl`, for which the activity change, negative = toxicity was -13.3% (inactive). With `C[C@H]1CN([C@@H](C)CO)C(=O)c2cccc(NC(=O)c3ccncc3)c2O[C@@H]1CN(C)Cc1c(Cl)cccc1Cl`, the activity change, negative = toxicity was 16% (inactive). As for `CC(C)N1CC2(CN(Cc3ccccc3Cl)C2)Oc2c(NC(=O)c3ccncc3)cccc2C1=O`, the figure is -16.5% (inactive); as for `CC(C)N1C[C@H](CN)Oc2c(NC(=O)c3ccncc3)cccc2C1=O`, 4.38% (inactive). For `Cc1cccc(-c2ccc([C@H]3[C@H](CO)N4CCCCN(C(=O)c5ccncc5)C[C@@H]34)cc2)c1`, the activity change, negative = toxicity was -19.7% (inactive).

These data come from PubChem BioAssay AID652280 (Broad Institute, 2013).
